This assay has as its target T1, Tyrosinase (Agaricus bisporus, UniProt O42713).
T1 sequence (O42713 whole entry): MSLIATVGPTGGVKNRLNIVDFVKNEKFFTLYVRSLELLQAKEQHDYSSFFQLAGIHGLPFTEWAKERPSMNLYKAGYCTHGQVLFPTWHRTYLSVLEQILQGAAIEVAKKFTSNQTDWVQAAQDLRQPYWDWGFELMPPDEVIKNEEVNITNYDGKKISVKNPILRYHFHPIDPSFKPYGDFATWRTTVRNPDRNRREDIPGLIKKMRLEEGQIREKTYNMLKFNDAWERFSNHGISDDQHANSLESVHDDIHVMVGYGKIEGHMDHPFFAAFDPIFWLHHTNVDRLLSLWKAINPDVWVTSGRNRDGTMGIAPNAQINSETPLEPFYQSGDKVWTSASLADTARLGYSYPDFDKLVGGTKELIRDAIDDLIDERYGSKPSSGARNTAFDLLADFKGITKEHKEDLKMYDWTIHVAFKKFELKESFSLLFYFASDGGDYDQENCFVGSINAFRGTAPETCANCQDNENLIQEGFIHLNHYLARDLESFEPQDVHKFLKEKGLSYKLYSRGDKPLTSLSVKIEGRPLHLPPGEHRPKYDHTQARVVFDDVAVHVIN
Description: Inhibition of mushroom tyrosinase
The IC50 is the concentration that gives 50% inhibition. A low value points to greater potency in that assay. As for `Oc1ccc(O)cc1` [HYDROQUINONE], the IC50 was determined as 4500 µM.

`CC(/C=C/C=C(\C)C(=O)O)=C\C=C\C=C(C)\C=C\C=C(/C)C(=O)O[C@@H]1O[C@H](CO[C@@H]2O[C@H](CO)[C@@H](O)[C@H](O)[C@H]2O)[C@@H](O)[C@H](O)[C@H]1O` [CROCIN 3] yielded an IC50 of 960 µM.

As to `CC1=C([C@@H](O)CC(=O)O)C(C)(C)C[C@@H](O)C1` [CROCUSATIN H], the IC50 was 870 µM.

Regarding `CC(/C=C/C=C(\C)C(=O)O[C@@H]1O[C@H](CO[C@@H]2O[C@H](CO)[C@@H](O)[C@H](O)[C@H]2O)[C@@H](O)[C@H](O)[C@H]1O)=C\C=C\C=C(C)\C=C\C=C(/C)C(=O)O[C@@H]1O[C@H](CO[C@@H]2O[C@H](CO)[C@@H](O)[C@H](O)[C@H]2O)[C@@H](O)[C@H](O)[C@H]1O` [CROCIN], the half-inhibitory concentration (IC50) is 140 µM.

The record behind these values is ChEMBL document CHEMBL1150656, “Constituents of the stigmas of Crocus sativus and their tyrosinase inhibitory activity” (J Nat Prod, 2002).
